Data reported in ChEMBL document CHEMBL4665836, “Overcoming β-Lactam resistance in Pseudomonas aeruginosa using non-canonical tobramycin-based antibiotic adjuvants” (2020).

What was measured:
Assay type in all cases: functional
[1] = test system: Pseudomonas aeruginosa; assay: Antibacterial activity against wild type Pseudomonas aeruginosa PAO1
[2] = test system: Pseudomonas aeruginosa; assay: Potentiation of aztreonam-induced antibacterial activity against carbapenem-resistant Pseudomonas aeruginosa 109084 clinical isolate assessed as fold reduction in aztreonam MIC at 8 uM in presence of beta-lactamase inhibitor, avi-bactam
[3] = test system: Pseudomonas aeruginosa; assay: Potentiation of imipenem-induced antibacterial activity against wild-type Pseudomonas aeruginosa PAO1 assessed as imipenem MIC at 8 uM by checkerboard assay (reference value: 4 ug/ml)
[4] = test system: Pseudomonas aeruginosa; assay: Potentiation of aztreonam-induced antibacterial activity against carbapenem and colistin-resistant Pseudomonas aeruginosa 91433 clinical isolate assessed as aztreonam MIC at 8 uM by checkerboard assay (reference value: 16 ug/ml)
[5] = test system: Pseudomonas aeruginosa; assay: Potentiation of imipenem-induced antibacterial activity against carbapenem-resistant Pseudomonas aeruginosa 108590 clinical isolate assessed as fold reduction in imipenem MIC at 8 uM in presence of beta-lactamase inhibitor, rele-bactam
[6] = test system: Pseudomonas aeruginosa; assay: Potentiation of ceftazidime-induced antibacterial activity against carbapenem-resistant Pseudomonas aeruginosa 262-101856 clinical isolate assessed as ceftazidime MIC at 8 uM by checkerboard assay (reference value: 16 ug/ml)
[7] = test system: Pseudomonas aeruginosa; assay: Potentiation of aztreonam-induced antibacterial activity against carbapenem-resistant Pseudomonas aeruginosa 262-101856 clinical isolate assessed as aztreonam MIC at 8 uM by checkerboard assay (reference value: 32 ug/ml)
[8] = test system: Pseudomonas aeruginosa; assay: Potentiation of aztreonam-induced antibacterial activity against carbapenem-resistant Pseudomonas aeruginosa 259-96918 clinical isolate expressing metallo-beta-lactamase assessed as aztreonam MIC at 8 uM by checkerboard assay (reference value: 32 ug/ml)
[9] = test system: Pseudomonas aeruginosa; assay: Potentiation of ceftazidime-induced antibacterial activity against carbapenem-resistant Pseudomonas aeruginosa 107092 clinical isolate assessed as fold reduction in ceftazidime MIC at 8 uM in presence of beta-lactamase inhibitor, avi-bactam
[10] = test system: Pseudomonas aeruginosa; assay: Potentiation of ceftazidime-induced antibacterial activity against carbapenem and colistin-resistant Pseudomonas aeruginosa 101243 clinical isolate assessed as ceftazidime MIC at 8.7 uM by checkerboard assay (reference value: 64 ug/ml)
[11] = test system: Pseudomonas aeruginosa; assay: Potentiation of aztreonam-induced antibacterial activity against carbapenem and colistin-resistant Pseudomonas aeruginosa 91433 clinical isolate assessed as aztreonam MIC at 8.7 uM by checkerboard assay (reference value: 16 ug/ml)
[12] = test system: Pseudomonas aeruginosa; assay: Potentiation of aztreonam-induced antibacterial activity against carbapenem-resistant Pseudomonas aeruginosa 259-96918 clinical isolate expressing metallo-beta-lactamase assessed as aztreonam MIC at 8.7 uM by checkerboard assay (reference value: 32 ug/ml)
[13] = test system: Pseudomonas aeruginosa; assay: Potentiation of ceftazidime-induced antibacterial activity against wild-type Pseudomonas aeruginosa PAO1 assessed as ceftazidime MIC at 8.7 uM by checkerboard assay (reference value: 2 ug/ml)
[14] = test system: Pseudomonas aeruginosa; assay: Potentiation of ceftazidime-induced antibacterial activity against carbapenem and colistin-resistant Pseudomonas aeruginosa 114228 clinical isolate assessed as ceftazidime MIC at 8.7 uM by checkerboard assay (reference value: 8 ug/ml)
[15] = test system: Pseudomonas aeruginosa; assay: Potentiation of ceftazidime-induced antibacterial activity against carbapenem-resistant Pseudomonas aeruginosa 100036 clinical isolate assessed as ceftazidime MIC at 8.7 uM by checkerboard assay (reference value: 8 ug/ml)
[16] = test system: Pseudomonas aeruginosa; assay: Potentiation of aztreonam-induced antibacterial activity against carbapenem-resistant Pseudomonas aeruginosa 264-104354 clinical isolate assessed as aztreonam MIC at 8.7 uM by checkerboard assay (reference value: 32 ug/ml)
[17] = test system: Pseudomonas aeruginosa; assay: Potentiation of ceftazidime-induced antibacterial activity against carbapenem-resistant Pseudomonas aeruginosa 86052 clinical isolate assessed as ceftazidime MIC at 8.7 uM by checkerboard assay (reference value: 64 ug/ml)
[18] = test system: Pseudomonas aeruginosa; assay: Potentiation of ceftazidime-induced antibacterial activity against carbapenem-resistant Pseudomonas aeruginosa 101885 clinical isolate assessed as ceftazidime MIC at 8.7 uM by checkerboard assay (reference value: 8 ug/ml)
[19] = test system: Pseudomonas aeruginosa; assay: Potentiation of ceftazidime-induced antibacterial activity against carbapenem-resistant Pseudomonas aeruginosa 260-97103 clinical isolate assessed as ceftazidime MIC at 8.7 uM by checkerboard assay (reference value: 32 ug/ml)
[20] = test system: Pseudomonas aeruginosa; assay: Potentiation of aztreonam-induced antibacterial activity against carbapenem-resistant Pseudomonas aeruginosa PAO750 harboring and mexAB-oprM/mexCD-oprJ/mexEF-oprN/mexJK/mexXY/opmH efflux deficient mutant assessed as aztreonam MIC at 8.7 uM by checkerboard assay (reference value: 0.5 ug/ml)
[21] = test system: Pseudomonas aeruginosa; assay: Potentiation of ceftazidime-induced antibacterial activity against carbapenem-resistant Pseudomonas aeruginosa PAO750 harboring mexAB-oprM/mexCD-oprJ/mexEF-oprN/mexJK/mexXY/opmH efflux deficient mutant assessed as ceftazidime MIC at 8.7 uM by checkerboard assay (reference value: 0.5 ug/ml)
[22] = test system: Pseudomonas aeruginosa; assay: Potentiation of aztreonam-induced antibacterial activity against wild-type Pseudomonas aeruginosa PAO1 assessed as aztreonam MIC at 8.7 uM by checkerboard assay (reference value: 4 ug/ml)
[23] = test system: Pseudomonas aeruginosa; assay: Potentiation of aztreonam-induced antibacterial activity against carbapenem-resistant Pseudomonas aeruginosa 260-97103 clinical isolate assessed as aztreonam MIC at 8.7 uM by checkerboard assay (reference value: 64 ug/ml)
[24] = test system: Pseudomonas aeruginosa; assay: Potentiation of ceftazidime-induced antibacterial activity against carbapenem-resistant Pseudomonas aeruginosa 109084 clinical isolate assessed as ceftazidime MIC at 8.7 uM by checkerboard assay (reference value: 64 ug/ml)
[25] = test system: Pseudomonas aeruginosa; assay: Potentiation of ceftazidime-induced antibacterial activity against carbapenem-resistant Pseudomonas aeruginosa 259-96918 clinical isolate expressing metallo-beta-lactamase assessed as ceftazidime MIC at 8.7 uM by checkerboard assay (reference value: 512 ug/ml)
[26] = test system: Pseudomonas aeruginosa; assay: Potentiation of aztreonam-induced antibacterial activity against carbapenem and colistin-resistant Pseudomonas aeruginosa 114228 clinical isolate assessed as aztreonam MIC at 8.7 uM by checkerboard assay (reference value: 32 ug/ml)
[27] = test system: Pseudomonas aeruginosa; assay: Potentiation of aztreonam-induced antibacterial activity against carbapenem-resistant Pseudomonas aeruginosa 108590 clinical isolate assessed as aztreonam MIC at 8.7 uM by checkerboard assay (reference value: 32 ug/ml)
[28] = test system: Pseudomonas aeruginosa; assay: Potentiation of ceftazidime-induced antibacterial activity against carbapenem-resistant Pseudomonas aeruginosa 264-104354 clinical isolate assessed as ceftazidime MIC at 8.7 uM by checkerboard assay (reference value: 128 ug/ml)
[29] = test system: Pseudomonas aeruginosa; assay: Potentiation of aztreonam-induced antibacterial activity against carbapenem-resistant Pseudomonas aeruginosa 109084 clinical isolate assessed as aztreonam MIC at 8.7 uM by checkerboard assay (reference value: 64 ug/ml)
[30] = test system: Pseudomonas aeruginosa; assay: Potentiation of aztreonam-induced antibacterial activity against carbapenem-resistant Pseudomonas aeruginosa 86052 clinical isolate assessed as aztreonam MIC at 8.7 uM by checkerboard assay (reference value: 64 ug/ml)
[31] = test system: Pseudomonas aeruginosa; assay: Potentiation of aztreonam-induced antibacterial activity against carbapenem-resistant Pseudomonas aeruginosa 101885 clinical isolate assessed as aztreonam MIC at 8.7 uM by checkerboard assay (reference value: 16 ug/ml)

Structure (SMILES): Cl.Cl.Cl.Cl.Cl.NC[C@H]1O[C@H](O[C@H]2[C@H](OCCCCCCCCCCCCN3CCN(c4cc5c(cc4F)c(=O)c(C(=O)O)cn5C4CC4)CC3)[C@@H](O)[C@H](N)C[C@@H]2N)[C@H](N)C[C@@H]1O
- MIC [1]: 32 µg/mL
- fold change (FC) [2]: 16
- MIC [3]: 1 µg/mL
- MIC [4]: 8 µg/mL
- fold change (FC) [5]: 16
- MIC [6]: 4 µg/mL
- MIC [7]: 16 µg/mL
- MIC [8]: 8 µg/mL
- fold change (FC) [9]: 16

Structure (SMILES): NC[C@H]1O[C@H](O[C@H]2[C@H](OCCCCc3cn(CCCCO[C@@H]4[C@@H](O[C@H]5O[C@H](CO)[C@@H](O)[C@H](N)[C@H]5O)[C@H](N)C[C@H](N)[C@H]4O[C@H]4O[C@H](CN)[C@@H](O)C[C@H]4N)nn3)[C@@H](O[C@H]3O[C@H](CO)[C@@H](O)[C@H](N)[C@H]3O)[C@H](N)C[C@@H]2N)[C@H](N)C[C@@H]1O.O=C(O)C(F)(F)F.O=C(O)C(F)(F)F.O=C(O)C(F)(F)F.O=C(O)C(F)(F)F.O=C(O)C(F)(F)F.O=C(O)C(F)(F)F.O=C(O)C(F)(F)F.O=C(O)C(F)(F)F.O=C(O)C(F)(F)F.O=C(O)C(F)(F)F
- MIC [1]: > 128 µg/mL
- fold change (FC) [2]: 16
- MIC [3]: 1 µg/mL
- MIC [4]: 4 µg/mL
- fold change (FC) [5]: 16
- MIC [6]: 2 µg/mL
- MIC [7]: 8 µg/mL
- MIC [8]: 8 µg/mL
- fold change (FC) [9]: 16

Structure (SMILES): N=C(N)NC[C@H]1O[C@H](O[C@H]2[C@H](OCCCCCCCCCCCCN3CCN(c4cc5c(cc4F)c(=O)c(C(=O)O)cn5C4CC4)CC3)[C@@H](O[C@H]3O[C@H](CO)[C@@H](O)[C@H](NC(=N)N)[C@H]3O)[C@H](NC(=N)N)C[C@@H]2NC(=N)N)[C@H](NC(=N)N)C[C@@H]1O.O=C(O)C(F)(F)F.O=C(O)C(F)(F)F.O=C(O)C(F)(F)F.O=C(O)C(F)(F)F.O=C(O)C(F)(F)F.O=C(O)C(F)(F)F
- MIC [1]: 32 µg/mL
- fold change (FC) [2]: 16
- MIC [3]: 1 µg/mL
- MIC [4]: 16 µg/mL
- fold change (FC) [5]: 16
- MIC [6]: 16 µg/mL
- MIC [7]: 32 µg/mL
- MIC [8]: 32 µg/mL
- fold change (FC) [9]: 16

Structure (SMILES): NC[C@H]1O[C@H](O[C@H]2[C@H](OCCCCc3cn(CCCCO[C@@H]4[C@@H](O)[C@H](N)C[C@H](N)[C@H]4O[C@H]4O[C@H](CN)[C@@H](O)C[C@H]4N)nn3)[C@@H](O)[C@H](N)C[C@@H]2N)[C@H](N)C[C@@H]1O.O=C(O)C(F)(F)F.O=C(O)C(F)(F)F.O=C(O)C(F)(F)F.O=C(O)C(F)(F)F.O=C(O)C(F)(F)F.O=C(O)C(F)(F)F.O=C(O)C(F)(F)F.O=C(O)C(F)(F)F
- MIC [1]: > 128 µg/mL
- fold change (FC) [2]: 16
- MIC [3]: 2 µg/mL
- MIC [4]: 2 µg/mL
- fold change (FC) [5]: 16
- MIC [6]: 16 µg/mL
- MIC [7]: 16 µg/mL
- MIC [8]: 8 µg/mL
- fold change (FC) [9]: 16

Structure (SMILES): NC[C@H]1O[C@H](O[C@H]2[C@H](OCCCCCCCCN3CCCNCCNCCCNCC3)[C@@H](O[C@H]3O[C@H](CO)[C@@H](O)[C@H](N)[C@H]3O)[C@H](N)C[C@@H]2N)[C@H](N)C[C@@H]1O.O=C(O)C(F)(F)F.O=C(O)C(F)(F)F.O=C(O)C(F)(F)F.O=C(O)C(F)(F)F.O=C(O)C(F)(F)F.O=C(O)C(F)(F)F.O=C(O)C(F)(F)F.O=C(O)C(F)(F)F.O=C(O)C(F)(F)F
- MIC [10]: 8 µg/mL
- MIC [11]: 16 µg/mL
- MIC [12]: 4 µg/mL
- MIC [13]: 0.25 µg/mL
- MIC [14]: 1 µg/mL
- MIC [15]: 2 µg/mL
- MIC [16]: 8 µg/mL
- MIC [1]: > 128 µg/mL
- fold change (FC) [2]: 16
- MIC [17]: 64 µg/mL
- MIC [3]: 2 µg/mL
- MIC [18]: 1 µg/mL
- MIC [19]: 16 µg/mL
- MIC [20]: 0.03 µg/mL
- MIC [21]: 0.06 µg/mL
- fold change (FC) [5]: 16
- MIC [22]: 0.25 µg/mL
- MIC [23]: 8 µg/mL
- MIC [24]: 16 µg/mL
- MIC [25]: 64 µg/mL
- MIC [26]: 4 µg/mL
- MIC [27]: 8 µg/mL
- MIC [28]: 32 µg/mL
- MIC [29]: 8 µg/mL
- MIC [30]: 16 µg/mL
- MIC [31]: 0.5 µg/mL
- fold change (FC) [9]: 16

Structure (SMILES): Cl.Cl.Cl.Cl.Cl.Cl.NC[C@H]1O[C@H](O[C@H]2[C@H](OCCCCCCCCCCCCN3CCN(c4cc5c(cc4F)c(=O)c(C(=O)O)cn5C4CC4)CC3)[C@@H](O[C@H]3O[C@H](CO)[C@@H](O)[C@H](N)[C@H]3O)[C@H](N)C[C@@H]2N)[C@H](N)C[C@@H]1O
- MIC [1]: 32 µg/mL
- fold change (FC) [2]: 16
- MIC [3]: 0.5 µg/mL
- MIC [4]: 4 µg/mL
- fold change (FC) [5]: 16
- MIC [6]: 4 µg/mL
- MIC [7]: 4 µg/mL
- MIC [8]: 8 µg/mL
- fold change (FC) [9]: 16

Structure (SMILES): NC[C@H]1O[C@H](O[C@H]2[C@H](OCCCCCCCCN3CCCNCCNCCCNCC3)[C@@H](O)[C@H](N)C[C@@H]2N)[C@H](N)C[C@@H]1O.O=C(O)C(F)(F)F.O=C(O)C(F)(F)F.O=C(O)C(F)(F)F.O=C(O)C(F)(F)F.O=C(O)C(F)(F)F.O=C(O)C(F)(F)F.O=C(O)C(F)(F)F.O=C(O)C(F)(F)F
- MIC [1]: > 128 µg/mL
- fold change (FC) [2]: 16
- MIC [3]: 4 µg/mL
- MIC [4]: 8 µg/mL
- fold change (FC) [5]: 16
- MIC [6]: 16 µg/mL
- MIC [7]: 8 µg/mL
- MIC [8]: 8 µg/mL
- fold change (FC) [9]: 16
